The subject of assay [1] is HepG-2 cells. Put plainly: Cell counting assay, HepG-2. The following applies: Homo sapiens, HepG2; vincristine 50 μg/mL, 24 hours; read-out: proliferation, % of controls. It is filed as cell-based. The protocol:
(§1) Cell counting was performed. The HepG-2 cell line was purchased from American Type Culture Collection (ATTC) (Manassas, Va., USA). Primary HUVEC were purchased from Lonza and used for experiments between the 5th-8th passages. Cells maintained (37° C. at 5% CO2 atmosphere) in their respective culture media as described above. HepG-2 and HUVEC were ‘seeded’ in 96-well plates (2×10^3 per well in 100 μL medium) and treated or not with FDP-NV-BSA for 24 hours. In each experiment, vincristine (50 μg/mL), a cell-cycle proliferation inhibitor, was added as a positive control. At 24 hrs, the medium was removed, the cells were fixed with 4% paraformaldehyde (PFA, ThermoFisher Sci) and the nuclei were stained using DAPI (4′,6-diamino-2-phenylindole, dihydrochloride, ThermoFisher Sci). The plates were analyzed in a fluorescence microscope (Olympus IX81, Olympus, Tokyo, Japan) by imaging 7 observation fields for each well using 100× magnification and DAPI (blue filter) for nuclei visualization, and TRITC (red filter) for FNDP-NV-BSA visualization. The number of viable cells in each field was determined by analysis of DAPI stained nuclei using ImageJ software (National Institutes of Health, Bethesda, Md., USA) with a digitally set-up cell counter.

Assay [2] deals with HUVEC. Put plainly: Cell counting assay, HUVEC. It is filed as cell-based. The following applies: Homo sapiens, vincristine 50 μg/mL, 24 hours, read-out: proliferation, % of controls. How it is done:
as §1

The subject of assay [3] is HepG-2 cells. Kind of assay: MTT assay (redox state), HepG-2. Format: cell-based, human. Particulars: vincristine 50 μg/mL, 24 hours. How it is done: (§2) The MTT assay was performed as a colorimetric assay using the Cell Proliferation Assay Kit (ThermoFisher Sci), composed of component A (3-(4,5-dimethylthiazol-2-yl)-2,5-diphenyltetrazolium bromide (MTT)) and component B (SDS (sodium dodecyl sulfate)) according to manufacturer's protocol. Briefly, HepG-2 cells and HUVEC were seeded in 96-well plates at a density of 1×10^4 cells per well in media described above for each cell type. Cells were treated or not with FDP-NV-BSA or vincristine (50 μg/mL) for 24 hours. Media (100 μL) were changed to phenol red-free DMEM (Dulbecco's Modified Eagle Medium) (ThermoFisher Sci), containing MTT component A. Plates were incubated for 4 hours, and cells lysed by adding equal volumes of 10% SDS (kit component B). Plates were incubated overnight and read using an ELISA plate reader ELx800 (BioTek, Winooski, Vt., USA) at 562 nm wavelength.

For assay [4], the system named is HUVEC. Put plainly: MTT assay (redox state), HUVEC. It is filed as cell-based, human. The following applies: vincristine 50 μg/mL, 24 hours. How it is done: as §2
The subject of assay [5] is CHOP and BiP. Put plainly: ER-stress biomarkers (Western blot), HepG-2. Format: cell-based, human. Particulars: tunicamycin 25 μg/mL. The protocol:
(§3) HepG-2 cells and HUVEC were treated (or not) with 0.1 mg/mL FDP-NV-BSA as described above. Treatment with vincristine (200 μg/mL) was used as a positive control for apoptosis, and with tunicamycin (25 μg/mL) as a positive control for ER-stress. A rabbit polyclonal antibody against caspase 3 (Cell Sign. Techn), which recognizes both the cleaved and the non-cleaved protein, was used for apoptosis detection. Rabbit mAb (clone C50B12) against BiP and mouse mAb (clone L63F7) against Chop (both from Cell Sign. Techn) were used for the detection of ER-stress. Equal loading of proteins was verified by membrane stripping and re-probing with an anti-actin mouse monoclonal antibody (Sigma Inc.).

Assay [6] relates to CHOP and BiP. Put plainly: ER-stress biomarkers (Western blot), HUVEC. Format: cell-based, human. The following applies: tunicamycin 25 μg/mL. The protocol: as §3

These results are taken from patent US20220362399A1, “COMPOSITIONS AND ARTICLES COMPRISING (NANO)DIAMOND PARTICLES” (Debina Diagnostics, Inc., priority 2019, published 2022).

Consider `CC[C@]1(O)C[C@H]2CN(CCc3c([nH]c4ccccc34)[C@@](C(=O)OC)(c3cc4c(cc3OC)N(C=O)[C@H]3[C@@](O)(C(=O)OC)[C@H](OC(C)=O)[C@]5(CC)C=CCN6CC[C@]43[C@@H]65)C2)C1` [vincristine], for which the values for the activity at 50 µg/mL with HepG-2 cells [1] and in the assay on HUVEC [2] were 50% and 80%, respectively. The “redox activity, % of normal controls” value in the assay with HepG-2 cells [3] and with HUVEC [4] was 25-30% each time.

For the compound tunicamycin, the ER-stress protein activation entry is recorded as “sensitive” in the assay on CHOP and BiP [5]; “sensitive” with CHOP and BiP [6].
